In paper PMC9464622, “The collectin SP-A and its trimeric recombinant fragment protect alveolar epithelial cells from the cytotoxic and proinflammatory effects of human cathelicidin in vitro” (Frontiers in Immunology, 2022):

How the values were obtained:
[1] = test system: human endothelial cells; details: cited from earlier work
From the text: (§1) The host appears to protect its own cells from LL-37 cytotoxicity by several mechanisms. […] In addition, the C1q globular head receptor (gC1qR, also known as p33) protects ...

[2] = cited from earlier work
From the text: The host appears to protect its own cells from LL-37 cytotoxicity by several mechanisms.

[3] = test system: A549 cells; assay: LL-37-induced IL-8 secretion (ELISA); type: cell-based, human; details: A-438079 10 µM, 15 min pre-treatment; LL-37 15 µM, 24 h
Protocol: A549 cells were seeded to a density of 50,000 cells per well in a 96-well tissue culture plate for 18 h in RPMI 1640 medium supplemented with antibiotics, 2 mM L-glutamine, and 5% FBS.
Secreted IL-8 was quantified in supernatants of A549 cells by ELISA (R&D Systems) following the supplier instructions. Briefly, anti-human IL-8 was coated on a 96-well Nunc-Immuno Plate MaxiSorp Surface (Thermo Scientific, Waltham, MA) in PBS overnight. After blocking with PBS and 10% FBS, and extensive washing, samples and standards were incubated for 2 h at room temperature. IL-8 cytokine was detected with biotinylated detection antibody and streptavidin-HRP. The colorimetric reaction was developed with tetramethylbenzidine (BD Biosciences, San Diego, CA) and was stopped with 4 M sulfuric acid. The absorbance at 450 nm was read on an ELISA reader (RT-6100 plate reader, Rayto Life and Analytical Sciences, Shenzhen, China).

[4] = test system: influenza A virus; details: cited from earlier work
From the text: as §1

[5] = test system: alveolar epithelial cells; details: cited from earlier work
From the text: as §1

[6] = test system: nontypeable Haemophilus influenzae; assay: Bacterial killing assay, NTHi; details: 10^5 CFU/ml, PBS + 1% TSB, 1 h 37°C; SP-A 0.025 µM, rfhSP-A 0.15 µM; increasing LL-37
Protocol: (§2) Klebsiella pneumoniae 52145 (serotype K2:O1), nontypeable Haemophilus influenzae strain 375 (NTHi), and P. aeruginosa (PAO1) are clinical isolates, as previously described ([40]–[42]). P. aeruginosa, and K. pneumoniae K2 were grown in Luria–Bertani (LB) broth at 37°C with continuous shaking to the exponential phase. Frozen stocks of NTHi strains were thawed and then grown on chocolate agar plates during 18 h at 37°C in a humidified 5% CO2 atmosphere. Then, NTHi were grown to the exponential phase on brain heart infusion broth (BHI) supplemented with 10 µg/ml hemin and 10 µg/ml β-nicotinamide adenine dinucleotide (β-NAD) (sBHI) with continuous shaking at 37°C in a humidified 5% CO^2 atmosphere. Exponential-phase bacteria were then harvested by centrifugation at 500 g for 10 min, resuspended in PBS, and adjusted to the desired final concentration, as described in ([24]).
(§3) The microbicidal activity of LL-37 in the presence of SP-A or rfhSP-A was evaluated by colony counts on plate assays ([24], [25]). […] Viable bacteria were enumerated by colony count and results were expressed as a percentage of relative survival in comparison to untreated bacteria.

[7] = Circular dichroism: secondary structure with and without bacterial lipid vesicles; type: physicochemical; details: far-UV CD, 25°C, 5 mM Tris-HCl, 150 mM NaCl pH 7.4; 100 µg/ml LL-37, 75 µg/ml SP-A or rfhSP-A; mixture compared with sum of individual spectra
Protocol: Circular dichroism (CD) spectra were obtained on a Jasco J-715 spectropolarimeter fitted with a 150 W xenon lamp ([38]). Quartz cells with a 0.1 cm optical path length were used, and the spectra were recorded in the far-UV region (190-260 nm) with a scanning speed of 50 nm/minute at 25°C. Four scans were accumulated and averaged for each spectrum. The acquired spectra were corrected by subtracting the appropriate blanks, subjected to noise reduction analysis, and presented as molar ellipticities (degrees cm2 dmol-1) assuming 110 Da as the average molecular mass per amino acid residue. At least three independent preparations of LL-37, SP-A, and rfhSP-A were measured. Spectra Manager Software (Jasco version 1.53) was used.
Two types of lipid vesicles were used: vesicles mimicking the bacterial cell wall (Re-LPS/BPL at a ratio of 08:02 by weight), and vesicles of bacterial inner membrane phospholipids (BPL). The final concentrations were 100 μg/ml (22.2 μM) for LL-37, 75 μg/ml (0.11 μM) for SP-A, and 75 μg/ml (1.3 μM) for rfhSP-A, in a final volume of 200 μl of 5 mM Tris-HCl, NaCl 150 mM, pH 7.4 buffer.
Vesicles mimicking the inner membrane of Gram-negative bacteria were prepared by mixing POPE, POPG, and CL at weight ratios of 67:23:10. […]

[8] = test system: P. aeruginosa; assay: Bacterial killing assay, P. aeruginosa; details: 10^5 CFU/ml, PBS, 1 h 37°C; SP-A 0.012 µM, rfhSP-A 0.075 µM; increasing LL-37
Protocol: as §2, §3

[9] = test system: K. pneumoniae K2; assay: Transmission electron microscopy of bacteria; type: cell-based, Klebsiella pneumoniae; details: LL-37 55.5 µM, SP-A 0.3 µM, rfhSP-A 1.5 µM, 30 min 37°C PBS; TEM
Protocol: The effect of LL-37, SP-A, rfhSP-A, and combinations thereof on the ultrastructure of K. pneumoniae was visualized by means of transmission electron microscopy, as described in ([25]). […] Cells were spun down and PBS medium was removed. Cell pellets were then chemically fixed with 4% paraformaldehyde and 2.5% glutaraldehyde for 4 h at 4°C and washed three times with PBS. Next, bacteria were post-fixed with 1% osmium tetroxide for 1 h. Samples were then washed thrice with bi-distilled water and dehydrated using sequential exposure to acetone concentrations ranging from 30% to 100% for 15 min at room temperature. Next, infiltration and embedding were performed using Spurr’s resin. The samples were sectioned using an ultramicrotome with a diamond knife and were mounted on copper grids. Samples were examined on a JEOL JEM 1010 electron microscope (JEOL, Tokyo, Japan).

[10] = test system: K. pneumoniae; assay: Bacterial membrane permeabilization, Sytox Green; type: cell-based, Klebsiella pneumoniae; details: 2.2 µM LL-37, 0.075 µM SP-A, 0.4 µM rfhSP-A, PBS pH 7.4, 37°C; three independent experiments
Protocol: The ability of LL-37, SP-A, rfhSP-A, and combinations thereof to permeabilize the outer and cytoplasmic bacterial membranes was studied in live bacteria by quantifying the internalization of the impermeant fluorescent Sytox Green, since its fluorescence increases when binding to bacterial DNA. For the measurement of Sytox Green influx, the probe (1 μM) was added to 1 ml of bacterial suspension (2x10^7 CFU/ml) in PBS and the sample was incubated for 15 min in darkness at room temperature as described in ([25]). Then, the fluorescence of the Sytox Green/bacterial suspension mixture was monitored for 4 hours in a FLUOstar Omega microplate reader (BMG LabTechnologies, Ortenberg, Germany) at excitation and emission wavelengths of 485 and 520 nm, respectively. PBS was used as a negative control, whereas ethanol (70%) was used as a positive control. Background fluorescence was measured in non-labeled bacteria.

[11] = LPS vesicle aggregation assay (turbidity, DLS); type: biochemical, Salmonella enterica serotype Minnesota; details: Re-LPS/BPL 50 µg/ml, 75 nM SP-A, 1.1 µM LL-37, 0.43 µM rfhSP-A, 37°C
Protocol: Vesicles mimicking the inner membrane of Gram-negative bacteria were prepared by mixing POPE, POPG, and CL at weight ratios of 67:23:10. Alternatively, vesicles mimicking bacterial outer membrane were prepared by adding ReLPS to the POPE/POPG/CL mixture (BPL, bacterial phospholipids) at a weight ratio of 8:2, as previously reported ([25]). Multilamellar vesicles and large unilamellar vesicles of DPPC and surfactant-like vesicles composed of DPPC, POPG, and palmitic acid (PA) (at weight ratios of 23:10:1.6) were prepared as previously reported ([28], [33]–[35], [39]).
Turbidity measurements: The effects of SP-A, rfhSP-A, and calcium on the aggregation of LPS vesicles that mimic bacterial outer membranes were studied in the absence and presence of LL-37 by measuring the change in absorbance at 400 nm in a Beckman DU-800 spectrophotometer ([28], [39]). Briefly, LPS vesicles (50 μg/ml) were added to both the sample and the reference cuvettes in 5 mM Tris-HCl and 150 mM NaCl 0.1 mM EDTA buffer, pH 7.4. After 10 min equilibration at 37°C, either human SP-A, rfhSP-A, LL-37, or combinations thereof was added to the sample cuvette, and the change in optical density at 400 nm was monitored. Next, 2.5 mM Ca^2+ was added to both the sample and reference cuvettes, and the change in absorbance was monitored again. Aggregation of surfactant phospholipid vesicles was performed in the same way. […]

[12] = test system: K. pneumoniae K2; assay: Bacterial killing assay, K. pneumoniae; details: 10^5 CFU/ml, PBS, 1 h 37°C; SP-A 0.11 µM, rfhSP-A 0.7 µM; increasing LL-37; CFU counting
Protocol: as §2, §3

| Compound | effect on LL-37 cytotoxicity on human endothelial cells [1] | effect on antimicrobial activity of LL-37 [2] | IL-8 release, A549, with P2X7 inhibitor [3] | antiviral activity against influenza A virus, LL-37 with SP-A [4] | effect on human β-defensin 3 cytotoxicity on alveolar epithelial cells [5] | effect on antibacterial activity of LL-37 against NTHi [6] | CD spectrum / change in α-helical content [7] | effect on antibacterial activity of LL-37 against P. aeruginosa [8] | effect on ultrastructure of K. pneumoniae [9] | Sytox Green permeabilization of K. pneumoniae [10] | LPS vesicle aggregation (scattered light), with calcium ([11]; 2.5 mM Ca2+, pH 7.4) | LPS vesicle turbidity (400 nm), no calcium ([11]; pH 7.4, before Ca2+) | effect on antibacterial activity of LL-37 against K. pneumoniae [12] |
| --- | --- | --- | --- | --- | --- | --- | --- | --- | --- | --- | --- | --- | --- |
| apolipoprotein A-I: HDL apolipoprotein A-I | reduces the cytotoxicity of LL-37 on human endothelial cells | reduces the antimicrobial activity of LL-37 |  |  |  |  |  |  |  |  |  |  |  |
| Clc1cccc(-c2nnnn2Cc2cccnc2)c1Cl [A-438079, reference compound] |  |  | decreased LL-37-induced IL-8 secretion |  |  |  |  |  |  |  |  |  |  |
| SP-A: Human surfactant protein A isolated from bronchoalveolar lavage fluid of patients with alveolar proteinosis |  |  | not observed in the presence of the P2X7 inhibitor | additive antiviral activity against influenza A virus | reduced cytotoxicity on alveolar epithelial cells | neither SP-A nor rfhSP-A modifies the antibacterial activity of LL-37 | marked decrease of negative ellipticity without any shift of the minimum at 207 nm | neither SP-A nor rfhSP-A modifies the antibacterial activity of LL-37 | did not cause any perturbation of the bacterial cell wall | did not affect the fluorescence of the dye | greatly increased | did not affect sample turbidity | neither SP-A nor rfhSP-A modifies the antibacterial activity of LL-37 |
